Test results reported in ChEMBL document CHEMBL1255204, “Identification of the first non-peptidic small molecule inhibitor of the c-Abl/14-3-3 protein-protein interactions able to drive sensitive and Imatinib-resistant leukemia cells to apoptosis” (2010).
Activity calls are given as the source filed them. The rule behind the calls is not given here.

Experiments:
[1] = Cytotoxicity against mouse BA/F3 cells overexpressing BCR-Abl T315I mutant; assay type: functional; conditions: BaF3, read-out: LD50 (the source's name)
[2] = biological target: Tyrosine-protein kinase ABL1 (Mus musculus) (UniProt P00520); assay: Induction of translocation of cAbl in to mitochondria of mouse BA/F3 cells assessed as caspase9 cleavage; conditions: BaF3
Sequence of Tyrosine-protein kinase ABL1 (Mus musculus) (P00520 whole entry): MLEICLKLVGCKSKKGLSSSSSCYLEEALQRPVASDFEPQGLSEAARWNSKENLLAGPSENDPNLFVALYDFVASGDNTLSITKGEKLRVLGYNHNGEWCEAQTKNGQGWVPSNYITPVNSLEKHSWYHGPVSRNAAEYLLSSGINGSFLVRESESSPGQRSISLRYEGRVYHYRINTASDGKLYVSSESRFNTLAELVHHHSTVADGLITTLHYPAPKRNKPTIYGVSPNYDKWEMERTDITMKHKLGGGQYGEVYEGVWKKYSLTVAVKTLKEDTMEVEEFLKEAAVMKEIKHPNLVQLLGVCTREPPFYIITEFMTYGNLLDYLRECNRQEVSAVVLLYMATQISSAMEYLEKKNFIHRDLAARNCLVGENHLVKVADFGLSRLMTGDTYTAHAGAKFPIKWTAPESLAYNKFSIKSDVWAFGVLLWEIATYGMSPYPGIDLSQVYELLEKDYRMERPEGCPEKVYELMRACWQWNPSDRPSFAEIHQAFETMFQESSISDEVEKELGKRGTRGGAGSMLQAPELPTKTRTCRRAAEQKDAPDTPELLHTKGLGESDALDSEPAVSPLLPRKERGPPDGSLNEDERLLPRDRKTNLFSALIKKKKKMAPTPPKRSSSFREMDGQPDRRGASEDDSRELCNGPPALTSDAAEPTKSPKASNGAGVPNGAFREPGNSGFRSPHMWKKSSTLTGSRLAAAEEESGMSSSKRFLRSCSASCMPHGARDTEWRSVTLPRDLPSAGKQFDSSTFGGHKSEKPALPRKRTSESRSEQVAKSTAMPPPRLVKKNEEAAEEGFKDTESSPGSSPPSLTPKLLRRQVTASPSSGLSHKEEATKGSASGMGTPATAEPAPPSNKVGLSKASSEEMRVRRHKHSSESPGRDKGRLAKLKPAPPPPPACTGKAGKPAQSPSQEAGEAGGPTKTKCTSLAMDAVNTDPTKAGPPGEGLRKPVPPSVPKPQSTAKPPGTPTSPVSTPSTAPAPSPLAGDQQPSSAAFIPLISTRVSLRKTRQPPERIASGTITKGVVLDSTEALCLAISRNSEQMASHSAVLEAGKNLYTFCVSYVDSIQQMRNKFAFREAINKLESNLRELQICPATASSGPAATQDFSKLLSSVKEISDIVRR

[3] = biological target: Tyrosine-protein kinase ABL1 (Mus musculus) (UniProt P00520); assay: Induction of translocation of cAbl in to mitochondria of mouse BA/F3 cells assessed as caspase 8 cleavage; conditions: BaF3
[4] = biological target: Tyrosine-protein kinase ABL1 (Mus musculus) (UniProt P00520); assay: Induction of nuclear translocation of cAbl of mouse BA/F3 cells; assay type: cell-based; conditions: BaF3
[5] = Cytotoxicity against mouse BA/F3 cells; assay type: functional; conditions: BaF3, read-out: LD50 (the source's name)
[6] = biological target: Bcr/Abl fusion protein (Homo sapiens) (UniProt P00519+P11274); assay: Binding affinity to Bcr-Abl expressed in mouse BA/F3 cells at 5 uM; assay type: cell-based; conditions: BaF3
Sequence of Bcr/Abl fusion protein (Homo sapiens) (P00519 whole entry, looked up, the tested form may be a part): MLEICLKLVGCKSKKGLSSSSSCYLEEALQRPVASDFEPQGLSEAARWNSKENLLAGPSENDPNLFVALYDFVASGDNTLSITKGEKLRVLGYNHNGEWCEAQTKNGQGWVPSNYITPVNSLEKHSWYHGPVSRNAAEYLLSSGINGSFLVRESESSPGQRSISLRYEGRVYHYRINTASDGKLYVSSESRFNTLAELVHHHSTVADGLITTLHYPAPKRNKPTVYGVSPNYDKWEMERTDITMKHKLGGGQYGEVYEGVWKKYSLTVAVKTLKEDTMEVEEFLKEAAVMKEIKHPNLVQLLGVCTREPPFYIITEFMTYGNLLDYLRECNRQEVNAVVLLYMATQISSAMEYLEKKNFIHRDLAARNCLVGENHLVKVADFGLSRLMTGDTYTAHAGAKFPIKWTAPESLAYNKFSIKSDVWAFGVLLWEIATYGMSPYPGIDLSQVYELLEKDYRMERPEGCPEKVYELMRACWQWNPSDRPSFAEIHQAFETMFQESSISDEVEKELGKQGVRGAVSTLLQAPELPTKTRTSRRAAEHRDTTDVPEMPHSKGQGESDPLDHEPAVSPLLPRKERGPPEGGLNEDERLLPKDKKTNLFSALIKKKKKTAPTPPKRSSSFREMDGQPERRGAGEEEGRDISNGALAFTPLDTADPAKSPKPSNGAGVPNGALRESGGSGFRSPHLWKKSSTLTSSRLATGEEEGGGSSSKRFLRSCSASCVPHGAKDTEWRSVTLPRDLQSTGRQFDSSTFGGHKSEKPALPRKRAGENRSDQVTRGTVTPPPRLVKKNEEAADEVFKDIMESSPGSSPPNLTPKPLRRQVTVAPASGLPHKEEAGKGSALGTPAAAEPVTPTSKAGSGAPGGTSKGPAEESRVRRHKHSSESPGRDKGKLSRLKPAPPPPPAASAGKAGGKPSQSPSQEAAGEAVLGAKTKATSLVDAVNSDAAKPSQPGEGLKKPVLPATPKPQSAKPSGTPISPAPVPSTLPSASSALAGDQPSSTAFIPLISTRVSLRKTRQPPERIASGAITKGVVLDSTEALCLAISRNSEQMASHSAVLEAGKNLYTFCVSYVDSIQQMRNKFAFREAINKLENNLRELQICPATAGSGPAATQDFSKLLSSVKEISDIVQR
Sequence of Bcr/Abl fusion protein (Homo sapiens) (P11274 whole entry, looked up, the tested form may be a part): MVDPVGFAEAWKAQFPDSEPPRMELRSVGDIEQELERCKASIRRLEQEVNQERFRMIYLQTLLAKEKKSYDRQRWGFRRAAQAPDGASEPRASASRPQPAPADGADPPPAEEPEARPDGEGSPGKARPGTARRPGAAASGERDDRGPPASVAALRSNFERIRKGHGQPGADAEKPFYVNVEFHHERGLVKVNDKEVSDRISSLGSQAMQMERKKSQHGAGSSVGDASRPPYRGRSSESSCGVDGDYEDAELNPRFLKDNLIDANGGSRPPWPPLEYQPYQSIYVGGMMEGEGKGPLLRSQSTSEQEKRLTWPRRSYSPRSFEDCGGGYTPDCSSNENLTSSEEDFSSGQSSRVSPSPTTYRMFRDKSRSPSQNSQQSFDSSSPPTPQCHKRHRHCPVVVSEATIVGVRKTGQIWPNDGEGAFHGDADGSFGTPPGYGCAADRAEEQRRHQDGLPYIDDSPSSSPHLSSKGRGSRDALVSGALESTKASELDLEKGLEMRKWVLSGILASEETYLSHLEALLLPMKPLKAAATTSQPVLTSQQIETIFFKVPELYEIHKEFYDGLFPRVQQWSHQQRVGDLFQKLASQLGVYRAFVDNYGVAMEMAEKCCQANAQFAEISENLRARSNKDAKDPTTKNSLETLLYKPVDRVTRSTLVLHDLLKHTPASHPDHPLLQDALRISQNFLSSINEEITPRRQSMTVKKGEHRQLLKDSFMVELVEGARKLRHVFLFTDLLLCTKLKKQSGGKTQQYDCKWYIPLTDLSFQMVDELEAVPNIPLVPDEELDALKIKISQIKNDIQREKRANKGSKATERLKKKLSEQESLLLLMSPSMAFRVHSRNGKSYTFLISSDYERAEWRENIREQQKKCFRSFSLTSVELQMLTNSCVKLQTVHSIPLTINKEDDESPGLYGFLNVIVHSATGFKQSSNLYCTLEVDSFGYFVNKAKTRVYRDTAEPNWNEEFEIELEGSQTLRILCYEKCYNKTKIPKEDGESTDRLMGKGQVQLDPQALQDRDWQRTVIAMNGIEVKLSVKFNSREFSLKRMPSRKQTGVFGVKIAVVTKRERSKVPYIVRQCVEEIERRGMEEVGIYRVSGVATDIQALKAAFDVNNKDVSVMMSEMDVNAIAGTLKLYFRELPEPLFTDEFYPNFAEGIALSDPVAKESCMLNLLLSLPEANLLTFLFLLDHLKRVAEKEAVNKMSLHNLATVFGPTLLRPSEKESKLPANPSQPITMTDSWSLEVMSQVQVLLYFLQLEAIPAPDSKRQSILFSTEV

[7] = biological target: Tyrosine-protein kinase ABL1 (Mus musculus) (UniProt P00520); assay: Induction of translocation of cAbl in to mitochondria of mouse BA/F3 cells; conditions: BaF3

In the case of `Cc1c(NC(=O)c2c(C(=O)O)cccc2C(=O)O)c(=O)n(-c2ccccc2)n1C`, the CC50 [1] was 1470 nM, the Activity [2] was “Active” and the Activity [3] was “Active”. The Activity [4] was “Active”, the CC50 [5] was 1040 nM and the Activity [6] was “Active”. For the same molecule, the Activity [7] was “Active”.
